Reference: patent US5552419A, “Arylsulfonamido-substituted hydroxamic acids” (Ciba-Geigy Corporation, priority 1993, dated 1996)

How the values were obtained:
[1] = biological target: recombinant human stromelysin (Homo sapiens, UniProt P08254); assay: release of KS and S-GAG fragments into the joint in rabbits after intra-articular injection of recombinant human stromelysin; type: in vivo, rabbit; conditions: 30 mg/kg, 4 hours prior to injection of human recombinant stromelysin
Description: The effect of compounds of the invention in-vivo can be determined in rabbits. […] Two hours later the rabbits are sacrificed, synovial lavage is collected, and keratan sulfate (KS) and sulfated glycosaminoglycan (S-GAG) fragments released into the joint are quantitated. Keratan sulfate is measured by an inhibition ELISA using the method of Thonar (Thonar, E. J.-M. A., Lenz, M. E., Klinsworth, G. K., Caterson, B., Pachman, L. M., Clickman, P.., Katz, R., Huff, J., Keuttner, K. E. Quantitation of keratan sulfate in blood as a marker of cartilage catabolism, Arthr. Rheum. 28, 1367-1376 (1985)). Sulfated glycosaminoglycans are measured by first digesting the synovial lavage with streptomyces hyaluronidase and then measuring DMB dye binding using the method of Goldberg (Goldberg, R. L. and Kolibas, L. An improved method for determining proteoglycan synthesized by chondrocytes in culture. Connect. Tiss. Res. 24, 265-275 (1990)). For an i.v. study, a compound is solubilized in 1 ml of PEG-400, and for a p.o. study, a compound is administered in 5 ml of fortified […] per kilogram of body weight.

cartilage degradation = assay: protection against cartilage degradation in a surgical model of osteoarthritis; type: in vivo
Excerpt: The effect in protecting against cartilage degradation in arthritic disorders can be determined e.g. in a surgical model of osteoarthritis described in Arthritis and Rheumatism, Vol. 26, 875-886 (1983).

Chain of recombinant human stromelysin (P08254 100-477): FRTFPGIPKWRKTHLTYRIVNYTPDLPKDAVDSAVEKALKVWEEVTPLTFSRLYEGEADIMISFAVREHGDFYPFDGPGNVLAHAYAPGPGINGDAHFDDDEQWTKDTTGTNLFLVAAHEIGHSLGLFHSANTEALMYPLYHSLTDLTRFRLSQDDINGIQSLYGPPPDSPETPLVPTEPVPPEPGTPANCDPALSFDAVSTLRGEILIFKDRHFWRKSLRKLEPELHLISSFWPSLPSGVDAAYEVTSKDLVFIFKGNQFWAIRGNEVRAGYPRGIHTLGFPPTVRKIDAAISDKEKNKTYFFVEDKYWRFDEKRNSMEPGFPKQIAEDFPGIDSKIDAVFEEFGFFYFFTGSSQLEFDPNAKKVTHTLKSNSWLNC

## COc1ccc(S(=O)(=O)N(Cc2cccnc2)[C@@H](C(=O)NO)C(C)C)cc1.Cl [N-hydroxy-2(R)-[[4-methoxybenzenesulfonyl](3-picolyl)amino]-3-methylbutanamide hydrochloride]
[1]; KS by inhibition ELISA
  inhibition in the release of KS fragments into the joint: 72%
[1]; S-GAG by DMB dye binding
  inhibition in the release of S-GAG fragments into the joint: 70%
Cartilage degradation
  effect in protecting against cartilage degradation in arthritic disorders: protects against cartilage degradation
